Source: PubChem BioAssay AID1918991 (Molecular Pharmacology Branch, DTP, NCI, 2023)

Test system: 186277-243-T-J2-PDC complex spheroid growth
Test: Anticancer human tumor 186277-243-T-J2-PDC patient-derived colon adenocarcinoma cell line growth inhibition [AhR]
Settings: for IC50: curve of first compound; for viability, T/C: stronger effect = lower value
Outline: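 Complex tumor spheroids co-cultured with HUVEC and human MSC stroma; AhR antagonists tested in combination with standard-of-care and investigational agents. Top concentration at or near clinical Cmax (else 10 microM), half-log dilutions; growth expressed as percent test/control.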

[1] = second compound 0.1 µM, first compound 0.0316 µM
[2] = second compound 0.1 µM, first compound 0.1 µM
[3] = second compound 0.1 µM, first compound 0.316 µM
[4] = second compound 0.1 µM, first compound 1 µM
[5] = second compound 0.1 µM, first compound 3.16 µM
[6] = second compound 0.1 µM, first compound 10 µM
[7] = second compound 0.316 µM, first compound 0.0316 µM
[8] = second compound 0.316 µM, first compound 0.1 µM
[9] = second compound 0.316 µM, first compound 0.316 µM
[10] = second compound 0.316 µM, first compound 1 µM
[11] = second compound 0.316 µM, first compound 3.16 µM
[12] = second compound 0.316 µM, first compound 10 µM
[13] = second compound 1 µM, first compound 0.0316 µM
[14] = second compound 1 µM, first compound 0.1 µM
[15] = second compound 1 µM, first compound 0.316 µM
[16] = second compound 1 µM, first compound 1 µM
[17] = second compound 1 µM, first compound 3.16 µM
[18] = second compound 1 µM, first compound 10 µM
[19] = second compound 3.16 µM, first compound 0.0316 µM
[20] = second compound 3.16 µM, first compound 0.1 µM
[21] = second compound 3.16 µM, first compound 0.316 µM
[22] = second compound 3.16 µM, first compound 1 µM
[23] = second compound 3.16 µM, first compound 3.16 µM
[24] = second compound 3.16 µM, first compound 10 µM
[25] = second compound 10 µM, first compound 0.0316 µM
[26] = second compound 10 µM, first compound 0.1 µM
[27] = second compound 10 µM, first compound 0.316 µM
[28] = second compound 10 µM, first compound 1 µM
[29] = second compound 10 µM, first compound 3.16 µM
[30] = second compound 10 µM, first compound 10 µM
[31] = second compound 0.1 µM, first compound 0.00316 µM
[32] = second compound 0.1 µM, first compound 0.01 µM
[33] = second compound 0.316 µM, first compound 0.00316 µM
[34] = second compound 0.316 µM, first compound 0.01 µM
[35] = second compound 1 µM, first compound 0.00316 µM
[36] = second compound 1 µM, first compound 0.01 µM
[37] = second compound 3.16 µM, first compound 0.00316 µM
[38] = second compound 3.16 µM, first compound 0.01 µM
[39] = second compound 10 µM, first compound 0.00316 µM
[40] = second compound 10 µM, first compound 0.01 µM
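Note: spheroids exposed to compounds for seven days before the viability read.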
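Throughout, for viability, T/C: luminescent signal used as a stand-in for viable cell amount; 100% = DMSO vehicle control wells.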

Compound | IC50 (second compound 0.1 µM) [nM] | IC50 (second compound 0.316 µM) [nM] | IC50 (second compound 1 µM) [nM] | IC50 (second compound 3.16 µM) [nM] | IC50 (second compound 10 µM) [nM] | viability, T/C [1] [%] | viability, T/C [2] [%] | viability, T/C [3] [%] | viability, T/C [4] [%] | viability, T/C [7] [%] | viability, T/C [8] [%] | viability, T/C [9] [%] | viability, T/C [10] [%] | viability, T/C [13] [%] | viability, T/C [14] [%] | viability, T/C [15] [%] | viability, T/C [19] [%] | viability, T/C [20] [%] | viability, T/C [25] [%] | viability, T/C [26] [%] | further results
CC(C)c1c(-c2ccccc2)nc2c(C#N)c[nH]n2c1=O + CC(CO)NC(=O)c1cc(-c2ccc(Cl)cc2)nn(-c2cnn(C)c2)c1=O | > 10000 | > 10000 | > 10000 | > 10000 | > 10000 | 95.2 | 93.5 | 88.4 | 95.5 | 99.5 | 100 | 109 | 92.9 | 104 | 113 | 105 | 92.2 | 85.1 | 90.2 | 85.1 | viability, T/C [5]: 89.5%; viability, T/C [6]: 79.6%; viability, T/C [11]: 99.2%; viability, T/C [12]: 91.7%; viability, T/C [16]: 104%; viability, T/C [17]: 86.4%; viability, T/C [18]: 93.8%; viability, T/C [21]: 91.9%; viability, T/C [22]: 89.8%; viability, T/C [23]: 87.3%; viability, T/C [24]: 95%; viability, T/C [27]: 81.8%; viability, T/C [28]: 85.5%; viability, T/C [29]: 76.9%; viability, T/C [30]: 87.3%
COc1ccc([C@@H](O)c2cc(-c3ncnc4cc(N5CCOCC5)ccc34)c(F)cc2Cl)nn1 + CC(CO)NC(=O)c1cc(-c2ccc(Cl)cc2)nn(-c2cnn(C)c2)c1=O | 3230 | 3710 | 3030 | 2560 | 1620 | 105 | 96.3 | 96.8 | 73.5 | 109 | 98.8 | 84.2 | 85.1 | 95.5 | 95.6 | 87.3 | 88.3 | 95.7 | 88.8 | 72.6 | viability, T/C [5]: 51.6%; viability, T/C [6]: 20.7%; viability, T/C [11]: 53.9%; viability, T/C [12]: 18.4%; viability, T/C [16]: 78.8%; viability, T/C [17]: 48.4%; viability, T/C [18]: 19.1%; viability, T/C [21]: 87%; viability, T/C [22]: 74.8%; viability, T/C [23]: 44.5%; viability, T/C [24]: 18.1%; viability, T/C [27]: 78.9%; viability, T/C [28]: 64%; viability, T/C [29]: 30.7%; viability, T/C [30]: 15.6%
CC[C@@]1(O)C(=O)OCc2c1cc1n(c2=O)Cc2cc3c(CN(C)C)c(O)ccc3nc2-1 + Cc1ccccc1N=Nc1ccc(NC(=O)c2ccnn2C)c(C)c1 | > 100 | > 100 | > 100 | > 100 | > 100 | 119 | 113 |  |  | 114 | 105 |  |  | 116 | 119 |  | 107 | 104 | 90.5 | 99.3 | viability, T/C (second compound 0.1 µM, first compound 0.000316 µM): 97.7%; viability, T/C (second compound 0.1 µM, first compound 0.001 µM): 113%; viability, T/C [31]: 107%; viability, T/C [32]: 133%; viability, T/C (second compound 0.316 µM, first compound 0.000316 µM): 113%; viability, T/C (second compound 0.316 µM, first compound 0.001 µM): 101%; viability, T/C [33]: 113%; viability, T/C [34]: 115%; viability, T/C (second compound 1 µM, first compound 0.000316 µM): 97.8%; viability, T/C (second compound 1 µM, first compound 0.001 µM): 103%; viability, T/C [35]: 110%; viability, T/C [36]: 123%; viability, T/C (second compound 3.16 µM, first compound 0.000316 µM): 94.9%; viability, T/C (second compound 3.16 µM, first compound 0.001 µM): 92.9%; viability, T/C [37]: 116%; viability, T/C [38]: 135%; viability, T/C (second compound 10 µM, first compound 0.000316 µM): 81.8%; viability, T/C (second compound 10 µM, first compound 0.001 µM): 92.2%; viability, T/C [39]: 98.1%; viability, T/C [40]: 117%
COc1cc(C2c3cc4c(cc3C(OC3OC5COC(C)OC5C(O)C3O)C3COC(=O)C23)OCO4)cc(OC)c1O (stereo not given) + Cc1ccccc1N=Nc1ccc(NC(=O)c2ccnn2C)c(C)c1 | 8920 | 7740 | 7570 | 7220 | 7390 | 87.1 | 103 | 142 | 99.7 | 98.5 | 117 | 145 | 96.1 | 113 | 124 | 144 | 94.8 | 106 | 102 | 104 | viability, T/C [5]: 81%; viability, T/C [6]: 46.5%; viability, T/C [11]: 78.6%; viability, T/C [12]: 42%; viability, T/C [16]: 93.6%; viability, T/C [17]: 76.2%; viability, T/C [18]: 41.7%; viability, T/C [21]: 137%; viability, T/C [22]: 94.6%; viability, T/C [23]: 72.8%; viability, T/C [24]: 41.2%; viability, T/C [27]: 118%; viability, T/C [28]: 93.6%; viability, T/C [29]: 71.7%; viability, T/C [30]: 42.4%
COc1cccc2c1C(=O)c1c(O)c3c(c(O)c1C2=O)CC(O)(C(=O)CO)CC3OC1CC(N)C(O)C(C)O1 (stereo not given) + Cc1ccccc1N=Nc1ccc(NC(=O)c2ccnn2C)c(C)c1 | 456 | 446 | 487 | 463 | 440 | 158 | 147 | 71 | 4.6 | 161 | 138 | 70 | 4.18 | 161 | 136 | 77.1 | 152 | 133 | 131 | 120 | viability, T/C [5]: 0.4%; viability, T/C [6]: 0.61%; viability, T/C [11]: 0.3%; viability, T/C [12]: 1.25%; viability, T/C [16]: 4.8%; viability, T/C [17]: 0.42%; viability, T/C [18]: 0.91%; viability, T/C [21]: 72.9%; viability, T/C [22]: 3.91%; viability, T/C [23]: 0.08%; viability, T/C [24]: 1.27%; viability, T/C [27]: 68.9%; viability, T/C [28]: 2.85%; viability, T/C [29]: 0.25%; viability, T/C [30]: 0.52%
Nc1ncn(C2CC(O)C(CO)O2)c(=O)n1 (stereo not given) + Cc1ccccc1N=Nc1ccc(NC(=O)c2ccnn2C)c(C)c1 | > 1000 | > 1000 | > 1000 | > 1000 | > 1000 | 105 | 112 | 103 | 143 | 108 | 115 | 120 | 144 | 102 | 128 | 119 | 101 | 105 | 103 | 109 | viability, T/C [31]: 115%; viability, T/C [32]: 108%; viability, T/C [33]: 118%; viability, T/C [34]: 96.8%; viability, T/C [35]: 100%; viability, T/C [36]: 102%; viability, T/C [16]: 144%; viability, T/C [37]: 103%; viability, T/C [38]: 128%; viability, T/C [21]: 113%; viability, T/C [22]: 122%; viability, T/C [39]: 90.2%; viability, T/C [40]: 97.2%; viability, T/C [27]: 104%; viability, T/C [28]: 103%
